From PubChem BioAssay AID328 (DTP/NCI, 2004) come the findings set out here.

“And” between values parts separate entries of the source, which are not always exact repeats. Equal entries are not always repeated. Inconclusive results and toxic doses are left out.

The assay concerns BDF1 mice, P388 leukemia ip, median survival T/C. The assay is described as follows: NCI In Vivo Anticancer Drug Screen. Data for tumor model P388 Leukemia (intraperitoneal) in B6D2F1 (BDF1) mice. The conditions noted are these: endpoint: median survival time, higher = longer survival. In short, it runs like this:
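Steps: implant the tumour, treat one group with compound and another with vehicle, record survival, then divide treated by control.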

The mark [1] stands for this setting: dose: 50.0 mg/kg/injection, schedule: Q04DX003 (ip), vehicle: Klucel (hydroxypropylcellulose) (HPC).
Setting [2] is: dose: 100.0 mg/kg/injection, schedule: Q01DX009 (ip), vehicle: other.
[3] abbreviates: dose: 100.0 mg/kg/injection, schedule: Q04DX003 (ip), vehicle: Klucel (hydroxypropylcellulose) (HPC).
[4] abbreviates: dose: 200.0 mg/kg/injection, schedule: Q01DX009 (ip), vehicle: other.
The mark [5] stands for this setting: dose: 200.0 mg/kg/injection, schedule: Q04DX003 (ip), vehicle: Klucel (hydroxypropylcellulose) (HPC).
[6] abbreviates: dose: 200.0 mg/kg/injection, schedule: Q01DX009 (ip), vehicle: saline.

As to `CSC(c1ccccc1)=[N+]1CCOCC1`, the T/C runs as follows: (dose: 50.0 mg/kg/injection, schedule: Q01DX009 (ip), vehicle: other) 100 % of control; under setting [1], 100 % of control; under setting [2], 118 % of control; under setting [3], 100 % of control; under setting [4], 113 % of control; under setting [5], 90 % of control.
As to `Cc1ccc(N=C=O)cc1[N+](=O)[O-]`, the T/C is 100 % of control (dose: 25.0 mg/kg/injection, schedule: Q01DX009 (ip), vehicle: gum acacia); 100 % of control (dose: 50.0 mg/kg/injection, schedule: Q01DX009 (ip), vehicle: gum acacia); 91 % of control (dose: 100.0 mg/kg/injection, schedule: Q04DX003 (ip), vehicle: gum acacia); 95 % of control (dose: 200.0 mg/kg/injection, schedule: Q04DX003 (ip), vehicle: gum acacia); 95 % of control (dose: 400.0 mg/kg/injection, schedule: Q04DX003 (ip), vehicle: gum acacia).
In the case of `Cc1ncc([N+](=O)[O-])n1CCSC(Cl)(Cl)Cl`, the T/C is 101 % of control (dose: 200.0 mg/kg/injection, schedule: Q04DX003 (ip), vehicle: saline) and 111 % of control (dose: 400.0 mg/kg/injection, schedule: Q04DX003 (ip), vehicle: saline).
For `CC1(C)CC(=O)C(C)(C)C(=O)C1`, the T/C is 95 % of control (dose: 3.0 mg/kg/injection, schedule: Q04DX003 (ip), vehicle: saline with Tween-80); 108 % of control (dose: 6.0 mg/kg/injection, schedule: Q04DX003 (ip), vehicle: saline with Tween-80); 100 % of control (dose: 6.25 mg/kg/injection, schedule: Q01DX009 (ip), vehicle: saline with Tween-80); 100 % of control (dose: 12.0 mg/kg/injection, schedule: Q04DX003 (ip), vehicle: saline with Tween-80); 104 % of control (dose: 12.5 mg/kg/injection, schedule: Q01DX009 (ip), vehicle: saline with Tween-80); 95 % of control (dose: 25.0 mg/kg/injection, schedule: Q04DX003 (ip), vehicle: saline with Tween-80).
In the case of `CC12CCC3C(CCC4=CC(=O)C(C(O)(C(F)(F)F)C(F)(F)F)CC43C)C1CC(C(O)(C(F)(F)F)C(F)(F)F)C2=O` (stereo not given), the T/C runs as follows: (dose: 100.0 mg/kg/injection, schedule: Q01DX001 (sc), vehicle: steriod suspending solution) 100 % of control; (dose: 200.0 mg/kg/injection, schedule: Q01DX001 (sc), vehicle: steriod suspending solution) 100 % of control; (dose: 400.0 mg/kg/injection, schedule: Q01DX001 (sc), vehicle: steriod suspending solution) 95 % of control.
On to `CC1(C)N=C(N)N=C(N)N1c1cccc(OCCOc2ccc(NC(=O)CBr)cc2)c1`, for which the T/C is, setting by setting: (dose: 50.0 mg/kg/injection, schedule: Q01DX009 (ip), vehicle: saline sonified) 116 % of control; (dose: 100.0 mg/kg/injection, schedule: Q01DX009 (ip), vehicle: saline sonified) 111 % of control.
As for `Cc1cccc(N=P(c2ccccc2)(c2ccccc2)c2ccccc2)c1`, the T/C is, setting by setting: (dose: 50.0 mg/kg/injection, schedule: Q01DX009 (ip), vehicle: Klucel (hydroxypropylcellulose) (HPC)) 109 % of control; under setting [1], 109 % of control; (dose: 100.0 mg/kg/injection, schedule: Q01DX009 (ip), vehicle: Klucel (hydroxypropylcellulose) (HPC)) 118 % of control; under setting [3], 100 % of control; (dose: 133.0 mg/kg/injection, schedule: Q01DX009 (ip), vehicle: Klucel (hydroxypropylcellulose) (HPC)) 117 % of control; (dose: 200.0 mg/kg/injection, schedule: Q01DX009 (ip), vehicle: Klucel (hydroxypropylcellulose) (HPC)) 108 % of control. In addition, the T/C under setting [5] is 95 % of control.
As to `CCCCCCCCCCCCCCCCOCCCCCCCCCCCCCCCC`, the T/C reads like this: under setting [2], 86 % of control; (dose: 100.0 mg/kg/injection, schedule: Q04DX003 (ip), vehicle: other) 91 % of control; under setting [4], 86 % of control; (dose: 200.0 mg/kg/injection, schedule: Q04DX003 (ip), vehicle: other) 91 % of control.
Take `N=[N+]=CC(=O)CC(N)C(=O)O` (stereo not given): the T/C (dose: 100.0 mg/kg/injection, schedule: Q01DX001 (ip), vehicle: saline sonified) was 95 % of control; the T/C (dose: 200.0 mg/kg/injection, schedule: Q01DX001 (ip), vehicle: saline sonified) is 86 % of control; the T/C (dose: 400.0 mg/kg/injection, schedule: Q01DX001 (ip), vehicle: saline sonified) was 95 % of control.
On to `c1ccc(-c2nc3ccccc3nc2-c2ccc(Cc3ccc(-c4nc5ccccc5nc4-c4ccccc4)cc3)cc2)cc1`, for which the T/C by setting is: (dose: 50.0 mg/kg/injection, schedule: Q01DX009 (ip), vehicle: saline with Tween-80) 88 % of control; (dose: 100.0 mg/kg/injection, schedule: Q01DX009 (ip), vehicle: saline with Tween-80) 103 % of control; (dose: 200.0 mg/kg/injection, schedule: Q01DX009 (ip), vehicle: saline with Tween-80) 88 % of control.
With `C/C(=N\OCc1cc2c(cc1Cl)OCO2)C(=O)O`, the T/C reads like this: (dose: 100.0 mg/kg/injection, schedule: Q04DX003 (ip), vehicle: saline sonified) 113 % of control; (dose: 200.0 mg/kg/injection, schedule: Q04DX003 (ip), vehicle: saline sonified) 109 % of control; (dose: 400.0 mg/kg/injection, schedule: Q04DX003 (ip), vehicle: saline sonified) 109 % of control.
For the compound `CC1=C/C(=N/NC(N)=O)CC(C)C1` (stereo not given), the T/C runs as follows: under setting [1], 100 % of control; under setting [3], 105 % of control; under setting [5], 100 % of control.
For the compound `O=C1c2ccccc2C(=O)c2c(O)c(N3CCCCC3)cc(O)c21`, the T/C is, setting by setting: (dose: 50.0 mg/kg/injection, schedule: Q01DX009 (ip), vehicle: saline) 93 % of control; (dose: 100.0 mg/kg/injection, schedule: Q01DX009 (ip), vehicle: saline) 97 % of control; (dose: 100.0 mg/kg/injection, schedule: Q04DX003 (ip), vehicle: saline with Tween-80) 98 % of control; under setting [6], 95 % of control; (dose: 200.0 mg/kg/injection, schedule: Q04DX003 (ip), vehicle: saline with Tween-80) 109 % of control; (dose: 400.0 mg/kg/injection, schedule: Q01DX009 (ip), vehicle: saline) 93 % of control. Moreover, the T/C (dose: 400.0 mg/kg/injection, schedule: Q04DX003 (ip), vehicle: saline with Tween-80) is 106 % of control.
On to `Nc1nc(N)c2nc(CNc3ccc(C(=O)NC(CCC(=O)O)C(=O)O)cc3)cnc2n1` (stereo not given), for which the T/C was 90 % of control and 104 % of control (dose: 0.03 mg/kg/injection, schedule: Q01DX010 (ip), vehicle: other); 109 % of control and 115 % of control (dose: 0.05 mg/kg/injection, schedule: Q01DX010 (ip), vehicle: other); 118 % of control (dose: 0.1 mg/kg/injection, schedule: Q01DX010 (ip), vehicle: other); 163 % of control and 175 % of control (dose: 0.2 mg/kg/injection, schedule: Q01DX010 (ip), vehicle: other).
As for `CN(C)[C@@H]1C(=O)C(C(N)=O)=C(O)[C@@]2(O)C(=O)C3=C(O)c4c(O)ccc(Cl)c4[C@@](C)(O)[C@H]3C[C@@H]12`, the T/C runs as follows: (dose: 132.0 mg/kg/injection, schedule: Q01DX009 (ip), vehicle: saline) 122 % of control; under setting [6], 122 % of control.
